Assay results reported in PMC7305236, “The atypical chemokine receptor ACKR3/CXCR7 is a broad-spectrum scavenger for opioid peptides” (Nature Communications, 2020).
Read-outs that look alike come from different tables or passages of the source. Starred links: 1 amine or outer side, 2 acyl side, 3 side chain; linkers in the order of their positions; H or OH if unused. Non-standard residues stand in square brackets, D forms with d. Residues, ends and D or L forms follow the SMILES beside them. X1 = N[C@@H](Cc1ccccc1)CN(CC(=O)[*:2])[*:1]

Tests used:
Assay in all cases: Figure S2a opioid peptide screen on chemokine receptors
Type in all cases: cell-based
Parameters in all cases: dose or concentration left out as unconfirmed
CCR5 = target: T1, CCR5 (Homo sapiens, UniProt P51681)
T1 construct: expressed in transfected cells

CCR10 = target: T2, CCR10 (Homo sapiens, UniProt P46092)
T2 construct: expressed in transfected cells
T2 sequence (P46092 1-362): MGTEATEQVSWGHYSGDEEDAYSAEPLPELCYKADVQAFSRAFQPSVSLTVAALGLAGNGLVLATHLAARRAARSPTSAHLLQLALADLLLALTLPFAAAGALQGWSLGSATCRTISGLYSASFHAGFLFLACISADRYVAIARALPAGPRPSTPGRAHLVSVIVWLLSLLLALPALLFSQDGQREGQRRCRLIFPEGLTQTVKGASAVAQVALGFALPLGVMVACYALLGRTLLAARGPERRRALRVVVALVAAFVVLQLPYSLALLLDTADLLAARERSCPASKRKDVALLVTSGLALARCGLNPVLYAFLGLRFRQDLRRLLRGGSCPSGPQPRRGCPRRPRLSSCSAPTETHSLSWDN

CXCR3B = target: T3, CXCR3B (Homo sapiens, UniProt P49682)
T3 construct: expressed in transfected cells; host or cells: U87 cells
T3 sequence (P49682 1-415 isoform P49682-2): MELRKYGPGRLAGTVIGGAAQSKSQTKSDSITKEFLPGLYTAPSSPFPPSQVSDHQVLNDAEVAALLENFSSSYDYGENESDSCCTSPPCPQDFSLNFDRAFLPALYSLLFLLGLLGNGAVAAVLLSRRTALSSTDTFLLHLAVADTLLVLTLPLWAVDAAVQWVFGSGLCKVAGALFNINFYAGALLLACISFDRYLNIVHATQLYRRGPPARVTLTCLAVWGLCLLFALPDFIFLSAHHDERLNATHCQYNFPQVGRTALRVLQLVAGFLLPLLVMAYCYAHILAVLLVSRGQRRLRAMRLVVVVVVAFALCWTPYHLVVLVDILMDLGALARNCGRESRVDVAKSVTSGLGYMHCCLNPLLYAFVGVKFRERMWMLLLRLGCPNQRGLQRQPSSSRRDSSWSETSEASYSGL

CXCR5 = target: T4, CXCR5 (Homo sapiens, UniProt P32302)
T4 construct: expressed in transfected cells
T4 sequence (P32302 1-372): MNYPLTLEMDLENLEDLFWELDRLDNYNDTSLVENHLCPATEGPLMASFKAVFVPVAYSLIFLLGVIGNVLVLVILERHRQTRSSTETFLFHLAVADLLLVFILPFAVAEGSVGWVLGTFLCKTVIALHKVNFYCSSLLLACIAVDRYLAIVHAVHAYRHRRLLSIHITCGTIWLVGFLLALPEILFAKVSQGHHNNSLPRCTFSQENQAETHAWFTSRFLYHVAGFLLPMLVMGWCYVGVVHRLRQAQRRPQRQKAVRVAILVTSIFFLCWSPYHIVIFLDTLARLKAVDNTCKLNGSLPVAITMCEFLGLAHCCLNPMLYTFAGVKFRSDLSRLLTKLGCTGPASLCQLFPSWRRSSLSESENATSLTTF

ACKR2 = target: T5, ACKR2 (Homo sapiens, UniProt O00590)
T5 construct: expressed in transfected cells; host or cells: U87 cells (human glioblastoma)
T5 sequence (O00590 1-384): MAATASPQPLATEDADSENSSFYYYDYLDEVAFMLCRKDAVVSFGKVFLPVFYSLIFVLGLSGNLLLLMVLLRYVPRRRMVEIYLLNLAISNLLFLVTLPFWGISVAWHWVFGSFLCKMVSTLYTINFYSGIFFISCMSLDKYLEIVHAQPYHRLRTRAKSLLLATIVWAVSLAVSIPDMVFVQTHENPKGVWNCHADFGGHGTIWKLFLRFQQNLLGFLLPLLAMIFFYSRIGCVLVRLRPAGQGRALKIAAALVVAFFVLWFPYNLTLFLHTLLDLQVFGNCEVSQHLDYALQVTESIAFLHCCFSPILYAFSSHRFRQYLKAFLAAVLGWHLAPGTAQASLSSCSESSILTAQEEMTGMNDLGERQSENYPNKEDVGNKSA

[1] = replicate 1, read-out: CCR5 activity, ctrl+ = 100
[2] = replicate 2, read-out: CCR5 activity, ctrl+ = 100
[3] = replicate 3, read-out: CCR5 activity, ctrl+ = 100
[4] = replicate 1, read-out: CCR10 activity, ctrl+ = 100
[5] = replicate 2, read-out: CCR10 activity, ctrl+ = 100
[6] = replicate 3, read-out: CCR10 activity, ctrl+ = 100
[7] = replicate 1, read-out: CXCR3B activity, ctrl+ = 100
[8] = replicate 2, read-out: CXCR3B activity, ctrl+ = 100
[9] = replicate 3, read-out: CXCR3B activity, ctrl+ = 100
[10] = replicate 1, read-out: CXCR5 activity, ctrl+ = 100
[11] = replicate 2, read-out: CXCR5 activity, ctrl+ = 100
[12] = replicate 3, read-out: CXCR5 activity, ctrl+ = 100
[13] = replicate 1, read-out: ACKR2 activity, ctrl+ = 100
[14] = replicate 2, read-out: ACKR2 activity, ctrl+ = 100
[15] = replicate 3, read-out: ACKR2 activity, ctrl+ = 100

T1 sequence (P51681 whole entry): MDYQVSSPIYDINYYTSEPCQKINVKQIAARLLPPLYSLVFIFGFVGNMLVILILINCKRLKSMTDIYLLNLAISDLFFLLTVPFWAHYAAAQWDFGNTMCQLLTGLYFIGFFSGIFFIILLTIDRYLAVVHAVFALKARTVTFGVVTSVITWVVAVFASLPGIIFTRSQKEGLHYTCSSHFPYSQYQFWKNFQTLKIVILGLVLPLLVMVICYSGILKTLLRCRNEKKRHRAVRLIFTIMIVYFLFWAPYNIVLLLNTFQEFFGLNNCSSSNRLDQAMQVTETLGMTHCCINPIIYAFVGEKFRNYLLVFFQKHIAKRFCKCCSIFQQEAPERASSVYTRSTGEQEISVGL

| Compound | activation (CCR5; [1]) | activation (CCR5; [2]) | activation (CCR5; [3]) | activation (CCR10; [4]) | activation (CCR10; [5]) | activation (CCR10; [6]) | activation (CXCR3B; [7]) | activation (CXCR3B; [8]) | activation (CXCR3B; [9]) | activation (CXCR5; [10]) | activation (CXCR5; [11]) | activation (CXCR5; [12]) | activation (ACKR2; [13]) | activation (ACKR2; [14]) | activation (ACKR2; [15]) |
| --- | --- | --- | --- | --- | --- | --- | --- | --- | --- | --- | --- | --- | --- | --- | --- |
| CSCC[C@H](NC(=O)[C@H](Cc1ccccc1)NC(=O)CNC(=O)CNC(=O)[C@@H](N)Cc1ccc(O)cc1)C(=O)N[C@@H](CCCNC(=N)N)C(=O)N[C@@H](CCCNC(=N)N)C(=O)N[C@H](C(N)=O)C(C)C [Adrenorphin] | 0.166% | -0.467% | -0.49% | 1.18% | -7.52% | -2% | 3.73% | 1.55% | 0.555% | -2.55% | -4.15% | 2.83% | -9.62% | -28.7% | -0.924% |
| CSCC[C@H](NC(=O)[C@H](Cc1ccccc1)NC(=O)CNC(=O)CNC(=O)[C@@H](N)Cc1ccc(O)cc1)C(=O)N[C@@H](CCCNC(=N)N)C(=O)N[C@@H](CCCNC(=N)N)C(=O)N[C@H](C(=O)NCC(=O)N[C@@H](CCCNC(=N)N)C(=O)N1CCC[C@H]1C(=O)N[C@@H](CCC(=O)O)C(=O)N[C@@H](Cc1c[nH]c2ccccc12)C(=O)N[C@@H](Cc1c[nH]c2ccccc12)C(=O)N[C@@H](CCSC)C(=O)N[C@@H](CC(=O)O)C(=O)N[C@@H](Cc1ccc(O)cc1)C(=O)N[C@@H](CCC(N)=O)C(=O)N[C@@H](CCCCN)C(=O)N[C@@H](CCCNC(=N)N)C(=O)N[C@@H](Cc1ccc(O)cc1)C(=O)NCC(=O)O)C(C)C [BAM22] | 0.229% | -1.32% | -1.42% | -2.23% | -4.92% | -3.25% | -1.43% | 0.626% | 5.18% | -1.51% | -4.48% | -1.8% | -3.78% | -1.93% | -0.478% |
| CC[C@H](C)[C@H](NC(=O)[C@H](CCCNC(=N)N)NC(=O)[C@H](CCCNC(=N)N)NC(=O)[C@H](CC(C)C)NC(=O)[C@H](Cc1ccccc1)NC(=O)CNC(=O)CNC(=O)[C@@H](N)Cc1ccc(O)cc1)C(=O)N[C@@H](CCCNC(=N)N)C(=O)N1CCC[C@H]1C(=O)N[C@@H](CCCCN)C(=O)N[C@@H](CC(C)C)C(=O)N[C@@H](CCCCN)C(=O)O [Dynorphin 1-13] | -0.272% | -1.44% | – | -2.25% | -4.52% | – | 3.92% | -5.01% | – | -0.575% | -5.55% | – | -0.369% | -39.6% | – |
| CC[C@H](C)[C@H](NC(=O)[C@H](CCCNC(=N)N)NC(=O)[C@H](CCCNC(=N)N)NC(=O)[C@H](CC(C)C)NC(=O)[C@H](Cc1ccccc1)NC(=O)CNC(=O)CN)C(=O)N[C@@H](CCCNC(=N)N)C(=O)N1CCC[C@H]1C(=O)N[C@@H](CCCCN)C(=O)N[C@@H](CC(C)C)C(=O)N[C@@H](CCCCN)C(=O)N[C@@H](Cc1c[nH]c2ccccc12)C(=O)N[C@@H](CC(=O)O)C(=O)N[C@@H](CC(N)=O)C(=O)N[C@@H](CCC(N)=O)C(=O)O [Dynorphin 2-17] | 1.32% | -2.11% | – | 0.214% | -5.55% | – | -1.19% | -3.44% | – | -2.49% | -3.33% | – | 12.5% | -37.2% | – |
| CC[C@H](C)[C@H](NC(=O)[C@H](CCCNC(=N)N)NC(=O)[C@H](CCCNC(=N)N)NC(=O)[C@H](CC(C)C)NC(=O)[C@H](Cc1ccccc1)NC(=O)CNC(=O)CNC(=O)[C@@H](N)Cc1ccc(O)cc1)C(=O)N[C@@H](CCCNC(=N)N)C(=O)N1CCC[C@H]1C(=O)N[C@@H](CCCCN)C(=O)N[C@@H](CC(C)C)C(=O)N[C@@H](CCCCN)C(=O)N[C@@H](Cc1c[nH]c2ccccc12)C(=O)N[C@@H](CC(=O)O)C(=O)N[C@@H](CC(N)=O)C(=O)N[C@@H](CCC(N)=O)C(=O)O [Dynorphin A] | 2.19% | -1.33% | 2.35% | 2.9% | -7.47% | 4.56% | -2.77% | 1.06% | -1.99% | -1.81% | -4.52% | 9.35% | 15.1% | -26% | 2.73% |
| NC(=O)[C@H](Cc1ccccc1)NC(=O)[C@H](Cc1c[nH]c2ccccc12)NC(=O)[C@@H]1CCCN1C(=O)[C@@H](N)Cc1ccc(O)cc1 [Endomorphin-1] | 0.726% | -0.866% | – | -5.29% | 7.53% | – | -0.0115% | 13% | – | 1.35% | -1.48% | – | -6% | 11.5% | – |
| C[C@H](NC(=O)CNC(=O)[C@@H](NC(=O)[C@H](Cc1ccccc1)NC(=O)CNC(=O)CNC[C@@H](N)Cc1ccccc1)[C@@H](C)O)C(=O)N[C@@H](CCCNC(=N)N)C(=O)N[C@@H](CCCCN)C(=O)N[C@@H](CO)C(=O)N[C@@H](C)C(=O)N[C@@H](CCCNC(=N)N)C(=O)N[C@@H](CCCCN)C(N)=O [FG Nociceptin 1-13] (H-[X1]GFTGARKSARK-NH2) | -0.325% | 0.224% | 0.582% | -1.11% | -2.39% | 7.95% | -0.717% | 1.26% | 8.05% | -5.41% | -2.11% | -0.496% | -51.1% | 36.5% | 2.35% |
| C[C@H](NC(=O)CNC(=O)[C@@H](NC(=O)[C@H](Cc1ccccc1)NC(=O)CNC(=O)CNC(=O)[C@@H](N)Cc1ccccc1)[C@@H](C)O)C(=O)N[C@@H](CCCNC(=N)N)C(=O)N[C@@H](CCCCN)C(=O)N[C@@H](CO)C(=O)N[C@@H](C)C(=O)N[C@@H](CCCNC(=N)N)C(=O)N[C@@H](CCCCN)C(N)=O [Nociceptin 1-13] | -0.291% | -0.592% | 0.907% | 2.26% | -5.16% | 3.57% | -2.86% | 1.14% | 7.41% | -3.96% | -2.66% | -1.89% | -54.6% | -2.02% | 10.5% |
